Measurements as given in patent US10085955B2, “Methods and compositions for treatment of demyelinating diseases” (Pathologica LLC, priority 2013, dated 2018).
“Also recorded” adds a separate entry of the source.

Key:
[1] = Multi-dose rat pharmacokinetic and tolerability study; assay type: in vivo, Sprague Dawley rats; settings: for AUC0-12 / AUC0-24 / Cmax / Tmax: PO twice daily; for fold increase in mean AUCall compared to Study Day 1: repeat twice-daily PO
Method: The purpose of this study was to determine the pharmacokinetic (PK) properties and tolerability of MGBG in rats. Additionally, recovery from any toxic effects was assessed after a seven day non-dosing period.
Three per group of male Sprague Dawley (CD® IGS, Charles River) aged 7-9 weeks and weighing 222.7-252.0 g were administered by oral (PO) gavage, twice daily, at 10, 20, or 30 mg/kg/dose (20, 40, or 60 mg/kg/day) for seven consecutive days. A washout period of seven days followed. Collection of approximately 200 μL of whole blood was collected from the tail vein of all animals in Groups 5, 6, and 7 were bled at six (Day 1), seven (Day 7), or one (Days 9 through 15) time point(s), respectively. Whole blood samples were collected in a lithium heparin microtainer and processed to plasma by centrifugation. Plasma was frozen at −70° C. Pharmacokinetic analyses were performed on the individual animal plasma concentration versus time data for MGBG using WinNonlin (linear trapezoidal rule for AUC calculations). Nominal dose values and sampling times were used for calculations. For Study Day 7, the reported values for MGBG concentrations at time zero were used in the calculations of AUC. Study Day 1 disposition parameters were not reported due to insufficient terminal phase data to adequately characterize these parameters.

[2] = tested on: MOG-induced experimental autoimmune encephalomyelitis (EAE); experiment: Third MOG EAE protocol (MGBG, fingolimod and combination); assay type: in vivo, C57BL/6 mice; settings: MGBG 30 mpk twice-daily, fingolimod 0.1 mpk once-daily, or both
Source text: An experimental murine model of multiple sclerosis employing a myelin oligodendrocyte glycoprotein (MOG) peptide to induce experimental autoimmune encephalomyelitis (EAE) was employed to determine the efficacy of MGBG in preventing and treating that disease. Because of its many similarities to MS, EAE is commonly used to study pathogenesis of autoimmunity, CNS inflammation, demyelination, cell trafficking, and tolerance induction. EAE is characterized by paralysis (in some models the paralysis is remitting-relapsing), CNS inflammation and demyelination. EAE is mediated primarily by dendritic cells, myelin-specific T cells (e.g. Th1 and Th17), and M1 macrophages. B cells may also play a role in some models of EAE. Body weight also tracks disease progression. EAE is induced in C57BL/6 mice by immunization with MOG35-55 or MOG1-125 in CFA emulsion followed by administration of pertussis toxin (PTX) in PBS. The emulsion provides antigen which initiates expansion and differentiation of MOG-specific autoimmune T cells. PTX enhances EAE development by providing additional adjuvant and facilitating entrance of autoimmune T cells into the CNS.
Chronic EAE develops in C57BL/6 mice after immunization with an emulsion of MOG35-55/CFA or MOG1-125/CFA followed by injection of pertussis toxin. This model is used to test the potential of compounds to prevent or mitigate EAE disease. It can be run with the compound dosed from the time of immunization (prophylactic treatment), or with the aim of reversing the course of disease and facilitating recovery by dosing the compound from the time of EAE onset (therapeutic treatment). The model uses female C57BL/6 mice of age 10 to 14 weeks at the start of the study. Typically, EAE develops 8-18 days after immunization. EAE development is usually followed for 4 weeks (28 days) after immunization.
Clinically, EAE progression is scored on a scale of 0 to 5, wherein each score represents the following clinical observations:
Inflammatory foci of approximately 20 cells were counted in each H&E stained section. When inflammatory infiltrates consisted of more than 20 cells, an estimate was made of how many foci of 20 cells were present.
The demyelination score represents an estimate of demyelinated area for each section as follows:
Ten week old female C57BL/6 mice weighing 18-23 g (Taconic Farms) were divided into four groups: mock immunized (n=3) and three MOG-immunized groups receiving MGBG at 30 mpk BID (as the di-HCl monohydrate with a correction factor of 1.49), […] dose, or 0.9% saline vehicle BID (n=12 each). […]

For `CC(/C=N/NC(=N)N)=N\NC(=N)N` [MGBG, 1,1′ [methylethanediylidene]dinitrilodiguanidine], the “hematology differences versus control group” value ([1]; 60 mg/kg/day dose group, not thought to be adverse) was “lower reticulocyte count and percentage”, the “gross or microscopic lesions at terminal sacrifice” value ([1]; PO twice daily 7 days, 20-60 mg/kg/day) was “No gross or microscopic lesions” and the AUC0-12 ([1]; 20 mg/kg/day, Day 7) was 1.03 µg·h/mL. The AUC0-24 ([1]; 20 mg/kg/day, Day 7) was 2.19 µg·h/mL, the Cmax ([1]; 20 mg/kg/day, Day 7) was 0.117 µg/mL and the Tmax ([1]; 20 mg/kg/day, Day 7) was 14 h. It also gave an AUC0-12 ([1]; 40 mg/kg/day, Day 7) of 1.8 µg·h/mL, an AUC0-24 ([1]; 40 mg/kg/day, Day 7) of 3.69 µg·h/mL and a Cmax ([1]; 40 mg/kg/day, Day 7) of 0.194 µg/mL. For the same compound, the Tmax ([1]; 40 mg/kg/day, Day 7) was 9.33 h, the Tmax ([1]; 60 mg/kg/day, Day 1) was 3.33 h and the AUC0-12 ([1]; 60 mg/kg/day, Day 7) was 3.13 µg·h/mL. It also gave an AUC0-24 ([1]; 60 mg/kg/day, Day 7) of 6.04 µg·h/mL, a Cmax ([1]; 60 mg/kg/day, Day 7) of 0.337 µg/mL and a Tmax ([1]; 60 mg/kg/day, Day 7) of 7.33 h. The “fold increase in mean AUCall compared to Study Day 1” value (shortened to “fold increase in mean AUCall”) ([1]; 20 mg/kg/day) was 3.77 fold, the “fold increase in mean AUCall” value ([1]; 40 mg/kg/day) was 4.03 fold and the “fold increase in mean AUCall” value ([1]; 60 mg/kg/day) was 3.68 fold. For the same compound, the “clinical scores / development of EAE” value ([2]; third 28-day study) was “suppressed EAE comparably to 0.1 mpk fingolimod; also recorded: equivalently efficacious in preventing EAE development”, the “cellular apoptosis in spinal cord” value ([2]; third study) was “equivalently efficacious in reducing apoptosis” and the “number of inflammatory foci in spinal cord” value ([2]; third study) was “equivalently efficacious in reducing the number of inflammatory foci”. The spinal cord demyelination ([2]; third study) was “equivalently efficacious in reducing demyelination”.
